Patent US6676950B2, “Neurokinin receptor antagonists and methods of use thereof for inhibiting HIV infection” (The Children's Hospital of Philadelphia, priority 2001, dated 2004)

Assays:
[1] = test system: luciferase-encoding HIV virions pseudotyped with MLV Env (CCR5-independent); assay: Pseudotype reporter virus entry assay, MLV Env; type: cell-based
Description: (§1) Pseudotype reporter virus entry assay: Recombinant luciferase-encoding HIV virions pseudotyped with Env from the M-tropic ADA (CCR5-dependent) and amphitropic murine leukemia virus (MLV) (CCR5-independent) were used to study HIV infection of MDM incubated with or without CP-96,345 or R-113281. The Env-deleted luciferase reporter plasmid PNL-Luc-E-R+ (kindly provided by N. Landau) was cotransfected into 293T cells along with plasmids encoding the ADA or MLV Env genes as previously described (31). Supernatants were collected 48 h later, assayed for p24^Gag antigen content, and frozen at −80° C. MDM (2.5×10^5 cells/well, in 48-well plates) were incubated overnight with or without CP-96,345 or R-113281 and then infected using 20 ng of p24^Gag antigen equivalent of each pseudotype HIV per well, in the presence of polybrene (7.5 μg/ml). At 72 h postinfection, the cells were lysed in 150 μl of 0.5% Triton-X-100 in PBS. Lysate (50 μl) was mixed with an equal volume of luciferase substrate (Promega, […].) and luciferase activity was determined in a microtiter plate luminometer (Dynex Technologies, Chantilly, Va.). The results were expressed as relative light units (RLU) in CP-96,345-treated or R-113281-treated and infected MDM as a percentage of that in untreated and infected MDM.

[2] = test system: HIV Bal strain; assay: HIV RT activity in culture supernatants of HIV Bal strain-infected MDM; type: cell-based, HIV-1
Description: The cells were also incubated with SP and/or anti-SP antibody. In this case, SP was incubated with (1:1000 dilution in 10% FCS DMEM) or without anti-SP antibody at room temperature for 10 min and then the mixture was added to the cell cultures for 2 h. When the cells were treated with the combination of CP-96,345 and SP, or CP-96,345, SP and anti-SP antibody, CP-96,345 was incubated with the cell culture for 10 min and then SP was added to the MDM or CP-96,345, SP and anti-SP (1:1000 in 10% FCS DMEM) were incubated for 10 min at room temperature and the mixture was incubated with the MDM for 2 h before infection with HIV. Untreated MDM served as controls. The cells were treated prior to, during, and throughout the infection.
HIV Infection: After 2 h incubation with or without the reagents described above, the cells were infected with equal amounts of cell-free HIV based on p24 antigen content (20 ng/10^6 cells) overnight, and then washed to remove unbound virus. Fresh media containing SP and/or CP-96,345 or anti-SP antibody were added to the MDM as described above. The culture media and the reagents were replaced twice weekly. The culture supernatants were harvested for HIV reverse transcriptase (RT) activity determinations. After HIV infection, the MDM were incubated for 8 to 12 days. At the termination of the experiments, cellular RNA was extracted for assessment of HIV gag gene expression using RT-PCR or real time RT-PCR assays.
The HIV RT activity assay was carried out based on the technique of Willey et al. (30) with modification (22).

[3] = test system: R5X4 strain (89.6); assay: HIV RT activity in MDM infected with R5X4 strain; type: cell-based; conditions: 8 days after infection
Description: (§2) Based upon their differential use of the major HIV co-receptors, HIV isolates have been referred to as R5, X4 or R5X4 strains, respectively (29). The M-tropic (macrophage-tropic) R5 prototype strains (Bal and ADA), dual tropic strain (89.6) and X4 primary isolate (UG024), were obtained from the NIH AIDS Reagent Program. Primary M-tropic isolates (BL-6 and CSF-6) were isolated from the blood and cerebrospinal fluid cells, respectively, of a subject with AIDS. […] The cells were also incubated with SP and/or anti-SP antibody. In this case, SP was incubated with (1:1000 dilution in 10% FCS DMEM) or without anti-SP antibody at room temperature for 10 min and then the mixture was added to the cell cultures for 2 h. When the cells were treated with the combination of CP-96,345 and SP, or CP-96,345, SP and anti-SP antibody, CP-96,345 was incubated with the cell culture for 10 min and then SP was added to the MDM or CP-96,345, SP and anti-SP (1:1000 in 10% FCS DMEM) were incubated for 10 min at room temperature and the mixture was incubated with the MDM for 2 h before infection with HIV. Untreated MDM served as controls. The cells were treated prior to, during, and throughout the infection. […]

[4] = test system: CCR5; assay: Flow cytometry of CCR5 receptor expression on MDM; type: cell-based, human
Description: The cells were removed from the culture plate and then resuspended in 100 μl of phosphate-buffered saline (PBS). After incubation with 20 μl of either anti-CCR5-FITC or anti-CXCR4-FITC or anti-CD4-FITC or anti-CD14-FITC for 45 min at 4° C., the cells were washed twice with PBS and fixed with 1% paraformaldehyde in PBS. Fluorescein-conjugated control antibodies were isotype-matched IgG. Fluorescence was analyzed on an EPICS-Elite flow cytometer (Beckman-Coulter Electronics, Hialeah, Fla.).

[5] = test system: luciferase-encoding HIV virions pseudotyped with ADA Env (CCR5-dependent); assay: Pseudotype reporter virus entry assay, ADA Env; type: cell-based
Description: as §1

[6] = test system: X4 strain (UG024); assay: HIV RT activity in MDM infected with X4 strain; type: cell-based; conditions: 8 days after infection
Description: as §2

[7] = test system: R5 strains (Bal, ADA, CSF-6 and BL-6); assay: HIV RT activity in MDM infected with R5 strains; type: cell-based; conditions: 8 days after infection
Description: as §2

[8] = CP-96,345 10^−8 and 10^−7 M overnight pretreatment
[9] = R-113281 10^−7 and 10^−6 overnight pretreatment

Row | SMILES | MLV Env-pseudotyped HIV infection of MDM (luciferase activity) [1, 8] | viral replication as determined by HIV RT activity ([2]; 10^−7M, 8 days after infection, vs HIV infection control) | effect on SP-enhanced HIV replication in MDM (HIV RT activity and HIV gag mRNA levels) ([2]; SP 10^−6M, CP-96,345 10^−6M, anti-SP antibody 1:1000 dilution, 12 days after infection) | HIV replication relative to HIV infection control ([2]; in presence of SP 10^−6M, CP-96,345 10^−6M and/or anti-SP antibody 1:1000, 12 days) | replication of R5X4 strain 89.6 (HIV RT activity) ([3]; CP-96,345 10^−7M) | CCR5 receptor expression on MDM (percentage positive cells) ([4]; incubated overnight (24 h), direct immunofluorescence) | ADA Env-pseudotyped HIV infection of MDM (luciferase activity) [5, 8] | replication of X4 strain UG024 (HIV RT activity) ([6]; CP-96,345 10^−7M) | replication of R5 strains (HIV RT activity) ([7]; CP-96,345 10^−7M) | MLV-Env pseudotyped HIV infection of MDM (luciferase activity) [1, 9] | HIV RT activity ([2]; MDM treated 2 hours, HIV-1 M-tropic strain Bal, day 8 post-infection) | replication of R5X4 strain (HIV RT activity) ([3]; R-113281 10^−6 M) | CCR5 protein expression (percentage of CCR5 positive cells, flow cytometry) ([4]; R-113281 10^−6 M, 24 hours) | ADA Env-pseudotyped HIV infection of MDM (luciferase activity) [5, 9] | replication of X4 strain (HIV RT activity) ([6]; R-113281 10^−6 M) | replication of R5 strains (HIV RT activity) ([7]; R-113281 10^−6 M)
1 | COc1ccccc1CN[C@H]1C2CCN(CC2)[C@H]1C(c1ccccc1)c1ccccc1 [CP-96,345, [2S,3S)-cis-2-(diphenylmethyl)-N-[(2-methoxyphenyl)-methyl]-1-azabicyclo [[2.2.2]-octan-3-amine]] | failed to block | inhibited | abrogated | down-regulated HIV replication to a level that was even lower than that of the HIV infection control | inhibited to a lesser extent | down-regulated | inhibited | not affected | inhibited | – | – | – | – | – | – | –
2 | COc1cc(C(=O)N2CCO[C@](CCN3CCC4(CC3)c3ccccc3C[S@+]4[O-])(c3ccc(Cl)c(Cl)c3)C2)cc(OC)c1OC.Cl [R-113281] | – | – | – | – | – | – | – | – | – | failed to block | significantly reduced | inhibited to a lesser extent | inhibited | inhibited | not affected | inhibited
